These results are taken from ChEMBL document CHEMBL1201862, “PubChem BioAssay data set” (2004).

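Cultured in 96-well plates, cells were exposed to test compound for 48 hours across five concentrations. GI50: concentration for 50% inhibition of growth.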 Active and inactive are the calls of the source. Rule as the data show it: active = GI50 up to about 1.1 µM and inactive = higher. Bounds are passed on as bounds.

Some test systems named below: LXFL 529; RXF 631; DLD-1; HOP-18; XF498; DMS-114; Hs-578T; MDA-MB-231; DU-145.
What all share (assay): NCI tumour cell line growth inhibition, 48 h

On to `CCC(=O)N1C(=O)OCC1C(C)C` (stereo unspecified), for which the GI50 in the assay with LXFL 529 was > 100 µM (inactive); in the assay on RXF 631, > 100 µM (inactive); with DLD-1, > 100 µM (inactive); with HOP-18, 15.8 µM (inactive); in the assay on XF498, > 100 µM (inactive); in the assay with DMS-114, > 100 µM (inactive).

`C[n+]1c2ccccc2c(CNc2ccc(S(=O)(=O)N=C(N)N)cc2)c2ccccc21`: the values for the GI50 with DLD-1 and with DMS-114 were 17.3 µM (inactive) and 2.65 µM (inactive), respectively.

With `N#CC(C#N)=C1NN=C(Cl)c2ccccc21`, the GI50 with LXFL 529 is 65 µM (inactive); in the assay with RXF 631, 80.5 µM (inactive); in the assay with DLD-1, > 100 µM (inactive); in the assay on HOP-18, 37.3 µM (inactive); with DMS-114 it was > 100 µM (inactive).

As to `COC1=CC(C)C2C[C@H]3O[C@H](O)C[C@H]4C(C)C(=O)C(O)C([C@@]2(C)C1=O)[C@@]34C` (stereo partly specified), the GI50 with LXFL 529, in the assay with DLD-1, in the assay with HOP-18 and with DMS-114 was > 100 µM (inactive) each time.

As for `COc1ccc2c3ccc4c(c3n(C)c2c1)C(=O)c1ccccc1C4=O`, the GI50 in the assay with LXFL 529 was 78 µM (inactive); with DLD-1, > 100 µM (inactive); in the assay with HOP-18, > 100 µM (inactive); with DMS-114, > 100 µM (inactive).

`O=C1NC(Cc2ccccc2)C(=O)N2CCCC12` (stereo unspecified): the GI50 in the assay with LXFL 529, in the assay with DLD-1, in the assay on HOP-18, in the assay with XF498 and in the assay on DMS-114 was > 100 µM (inactive) in each case.

Consider `OCC(O)C(O)C(O)c1nnn[nH]1` (stereo unspecified), for which the GI50 in the assay on LXFL 529, in the assay with DLD-1 and with DMS-114 was > 100 µM (inactive) each time.

As for `N#CC(/C(=N\NC(N)=S)C(=O)NC1C2CC3CC(C2)CC1C3)c1ccc(Cl)cc1` (stereo unspecified), the GI50 with LXFL 529, in the assay on RXF 631, in the assay on DLD-1, in the assay with HOP-18, with XF498 and in the assay on DMS-114 was > 100 µM (inactive) throughout.

For `CC(C)c1ccc(C(c2ccc(OCC(=O)O)cc2)c2ccc(C(C)C)cc(=O)c2O)c(O)c(=O)c1`, the GI50 with LXFL 529 is 4.5 µM (inactive); with RXF 631, 5.08 µM (inactive); in the assay on DLD-1, 3.48 µM (inactive); in the assay with HOP-18, 9.89 µM (inactive); with XF498, 2.63 µM (inactive); with DMS-114 it was 2.92 µM (inactive).

In the case of `Cc1ccc(-c2nc3ccccc3c(=O)n2NCC2(O)OCC(O)C(O)C2O)cc1` (stereo unspecified), the GI50 in the assay with LXFL 529 and with DMS-114 was > 100 µM (inactive) each time.

As for `CC1CC(=O)Nc2ccc(Cl)cc2N1C(=O)CN1CCC(CCCCN(C)C)CC1` (stereo unspecified), the GI50 in the assay on LXFL 529, in the assay with RXF 631, with DLD-1, with HOP-18 and with DMS-114 was > 100 µM (inactive) in each case.

As for `Cn1c(CCC#N)nc2ccc(Br)cc2c1=O`, the GI50 in the assay with LXFL 529, in the assay with RXF 631, in the assay with DLD-1, in the assay with XF498 and in the assay on DMS-114 was > 100 µM (inactive) each time.

For `C[C@]12CC[C@H](O)CC1=CC[C@@H]1C2CC[C@]2(C)NC(=O)C(C#N)CC12` (stereo partly specified), the GI50 with LXFL 529, with DLD-1, with XF498 and in the assay with DMS-114 was > 100 µM (inactive) in each case.

With `CCCCCCCCCCCCCC(=O)CSCCNC(=O)CCNC(=O)[C@@H](O)C(C)(C)COP(=O)(O)OP(=O)(O)OCC1OC(n2cnc3c(N)ncnc32)C(O)C1OP(=O)(O)O` (stereo partly specified), the GI50 in the assay with LXFL 529 was 17.5 µM (inactive); in the assay with DLD-1, 19 µM (inactive); with HOP-18, 17.5 µM (inactive); in the assay on XF498, 18.5 µM (inactive); in the assay on DMS-114, 15.6 µM (inactive).

As for `COC(=O)C(=O)C1(CCC(C)=O)c2ccccc2-c2ccccc21`, the GI50 in the assay on LXFL 529 was 47.1 µM (inactive); in the assay on DLD-1 it was 66.2 µM (inactive); in the assay with HOP-18, 71.6 µM (inactive); with DMS-114 it was 65.5 µM (inactive).

Consider `OCC(O)C(O)C(O)c1nn(-c2ccc(Cl)cc2)c2nc3cc(Cl)c(Cl)cc3nc12` (stereo unspecified), for which the GI50 in the assay with LXFL 529 is 33 µM (inactive); in the assay with DLD-1 it was > 100 µM (inactive); in the assay with HOP-18, 31.9 µM (inactive); in the assay on XF498, 11.1 µM (inactive); with DMS-114, 94.4 µM (inactive).

Consider `COC(=O)C1CC(OC(C)=O)C=C2C(=O)CCC21` (stereo unspecified), for which the GI50 with LXFL 529 was 15.5 µM (inactive); in the assay on RXF 631, 27.5 µM (inactive); in the assay with DLD-1, 14.5 µM (inactive); in the assay on HOP-18, 20.5 µM (inactive); with DMS-114, 15 µM (inactive).

For `Cc1cc2c(=O)cc(-c3ccc(C(=O)O)cc3)oc2c(C(N)=O)c1C`, the GI50 in the assay on LXFL 529, in the assay on RXF 631, in the assay on DLD-1 and in the assay on DMS-114 was > 100 µM (inactive) throughout.

On to `COc1cc(/C=C(\C#N)C(=O)c2ccccc2)cc(OC)c1OC`, for which the GI50 in the assay with LXFL 529, in the assay with DLD-1, in the assay on HOP-18 and in the assay on DMS-114 was > 100 µM (inactive) each time.

On to `COc1cc(/C=N/c2nncs2)ccc1O`, for which the GI50 in the assay on LXFL 529, in the assay with RXF 631, in the assay on HOP-18, in the assay with XF498 and in the assay on DMS-114 was > 100 µM (inactive) throughout.

For `CCCCC(C(=O)CCC(=O)Nc1ccc(Cl)cc1)C(=O)C(C)C` (stereo unspecified), the GI50 is 92.7 µM (inactive) in the assay on LXFL 529; > 100 µM (inactive) with RXF 631; > 100 µM (inactive) in the assay with DLD-1; > 100 µM (inactive) with XF498; > 100 µM (inactive) with DMS-114.

With `O=C(O)CCSC(=O)Nc1ccccc1`, the values for the GI50 in the assay on LXFL 529 and in the assay on DLD-1 were 61.9 µM (inactive) and > 100 µM (inactive), respectively.

On to `N#CC1(C#N)C(c2ccccc2)C=CC12OCCCO2` (stereo unspecified), for which the GI50 in the assay on LXFL 529 was 28.5 µM (inactive); in the assay on RXF 631, 81.3 µM (inactive); in the assay on DLD-1, 26 µM (inactive); in the assay on HOP-18, > 100 µM (inactive); in the assay with XF498, 49.4 µM (inactive); in the assay with DMS-114, 24.3 µM (inactive).

In the case of `O=S1(=O)OCCOS(=O)(=O)C1I`, the GI50 in the assay on LXFL 529, with RXF 631, with DLD-1, with XF498 and with DMS-114 was > 100 µM (inactive) each time.

On to `COc1cccc(NC(=O)CC(=O)N2N=C(N(CCC#N)c3ccc(Cl)cc3)CC2c2ccccc2)c1` (stereo unspecified), for which the GI50 in the assay on LXFL 529, in the assay with DLD-1, in the assay on HOP-18 and with DMS-114 was > 100 µM (inactive) each time.

Regarding `CN(C)c1ccc(/C=C/C(=O)c2ccccc2)cc1Br`, the GI50 in the assay on LXFL 529 is 15.1 µM (inactive); with DLD-1, 18.9 µM (inactive); in the assay on XF498 it was 16.3 µM (inactive); in the assay with DMS-114 it was 17.3 µM (inactive).

For `C[C@H]1NC(=O)C2CCCCN2C(=O)CN(C)C(=O)CNC(=O)C2CCCCN2C(=O)[C@@H](NC(=O)c2nc3ccccc3cc2O)[C@@H](C)NC(=O)C2CCCCN2C(=O)CN(C)C(=O)CNC(=O)[C@@H]2CCCCN2C(=O)C1NC(=O)c1nc2ccccc2cc1O` (stereo partly specified), the GI50 is 0.14 µM (active) with LXFL 529, 0.164 µM (active) in the assay on RXF 631 and 0.23 µM (active) in the assay with DMS-114.

As for `COc1cccc2c(Nc3ccc(S(=O)(=O)NC(C)=O)cc3)c3ccc([N+](=O)[O-])cc3nc12`, the GI50 in the assay with Hs-578T was 32.3 µM (inactive); with MDA-MB-231 it was 21.2 µM (inactive); with DU-145 it was > 70.3 µM (inactive).

For the compound `CCCN(CCCCN1C(=O)c2ccccc2C1=O)CC1COc2ccccc2O1` (stereo unspecified), the GI50 in the assay on Hs-578T, in the assay with MDA-MB-231 and in the assay on DU-145 was > 100 µM (inactive) each time.

With `Cc1ccc(O)c(C(c2cc(C)ccc2O)c2cc([N+](=O)[O-])ccc2O)c1`, the GI50 with Hs-578T is 7.71 µM (inactive); in the assay with MDA-MB-231 it was 0.0604 µM (active); in the assay on DU-145, 17.3 µM (inactive).

Consider `N#CC(NC12CC3CC(CC(C3)C1)C2)c1ccccc1` (stereo unspecified), for which the GI50 in the assay with Hs-578T, with MDA-MB-231 and with DU-145 was > 100 µM (inactive) in each case.

For the compound `Nc1ccn(C=C=CCO)c(=O)n1`, the GI50 with Hs-578T, in the assay with MDA-MB-231 and with DU-145 was > 100 µM (inactive) throughout.

Consider `C/C(=N\NC(=S)NCc1ccccc1)c1nc2cccnc2[nH]1`, for which the GI50 in the assay with Hs-578T was 18.3 µM (inactive); with MDA-MB-231 it was 17.3 µM (inactive); in the assay with DU-145, 4.84 µM (inactive).

`CN1OC2OC(=O)OC2[C@H]1[C@H]1O[C@H](c2ccccc2)OC1(C)c1cc(OC(=O)c2ccccc2)ccc1OC(=O)c1ccccc1` (stereo partly specified): the GI50 in the assay with LXFL 529, in the assay on RXF 631, with DLD-1, with XF498 and in the assay on DMS-114 was > 50 µM (inactive) throughout.

With `COC(=O)c1c(OC)cccc1C(=O)O`, the GI50 in the assay with LXFL 529, in the assay with RXF 631, in the assay with HOP-18 and with DMS-114 was > 100 µM (inactive) each time.

Turning to `Fc1ccc2c3c([nH]c2c1)CCNC3`, the GI50 in the assay with Hs-578T, in the assay on MDA-MB-231 and in the assay on DU-145 was > 100 µM (inactive) throughout.

For the compound `Oc1cc(Br)cc2cc(Br)cnc12`, the GI50 in the assay with Hs-578T was 3.24 µM (inactive); in the assay with MDA-MB-231, 12.2 µM (inactive); in the assay on DU-145 it was 3.68 µM (inactive).

On to `CC1CN1c1c(C(=O)/C=C/c2ccccc2)c(-c2ccccc2)nn(C)c1=O` (stereo unspecified), for which the GI50 with LXFL 529 is 15.3 µM (inactive); with DLD-1, 15.2 µM (inactive); in the assay with HOP-18, 26.2 µM (inactive); with DMS-114, 23 µM (inactive).

In the case of `O=C(c1ccccc1)c1ccc2nc3n(c2c1)C(c1c(F)cccc1F)SC3` (stereo unspecified), the GI50 is 8.55 µM (inactive) in the assay on Hs-578T, 12.9 µM (inactive) with MDA-MB-231 and 11.3 µM (inactive) in the assay on DU-145.

For `COc1ccc(C2C3=C(COC3=O)Oc3cc4c(cc32)OCO4)cc1OC` (stereo unspecified), the figures for the GI50 in the assay on Hs-578T, in the assay on MDA-MB-231 and in the assay on DU-145 were 0.408 µM (active), 3.4 µM (inactive) and 1.81 µM (inactive), respectively.
